Results reported in patent US10662204B2 (PFIZER INC., priority 2018, dated 2020).

What was measured:
[1] = molecular target: T1, GDP-loaded KRAS (1-169) G12C, C51S, C80L, C118S (Homo sapiens, UniProt P01116, C118S/C51S/C80L/G12C); test: Mass Spectrometry Reactivity Assay (MSRA): covalent adduct of compound and KRAS G12C, Percent Modification; format: binding; conditions: for MSRA (% modification) 10 μM 0.50 hr / MSRA (% modification) 10 μM 0.25 hr: 10 μM compound; for MSRA (% modification) 5.0 μM 0.017 hr / MSRA (% modification) 5.0 μM 0.25 hr: 5.0 μM compound
T1 construct: GDP-loaded KRAS (1-169) G12C, C51S, C80L, C118S
In short: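 Covalent labelling is measured by intact mass: deconvoluted modified and unmodified peak intensities yield percent modification. Compound, usually 5 μM or 10 μM final, reacts at room temperature with 5 μM GDP-bound KRAS G12C (1-169, C51S/C80L/C118S) in Hepes pH 7.5/NaCl/glycerol, sampled at 1, 15, 30, 60 min.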

KRAS G12C = KRAS G12C (Homo sapiens, UniProt P01116, G12C); test: Cell Activity Assay: accumulation of GDP-bound KRAS G12C in MIAPaCa-2 cells (Raf-1 RBD capture, MSD readout); format: cell-based; parameters: endogenous in cells; host or cells: MIAPaCa-2; conditions: 6 hours, assay limit is 30.00
In short: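 IC50 came from a 4-parameter fit of Ras signal normalized between DMSO and full-inhibition controls. Readout: lysate GTP-Ras bound to immobilized Raf-1 RBD, quantified with pan-Ras antibody and MSD electrochemiluminescence. Lysates derived from MIAPaCa-2 cells treated 6 h with serially diluted compound, 0.3% DMSO.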

| SMILES | MSRA (% modification) 10 μM 0.50 hr [1] [%] | IC50 (KRAS G12C) [µM] | MSRA (% modification) 5.0 μM 0.017 hr [1] [%] | MSRA (% modification) 5.0 μM 0.25 hr [1] [%] | MSRA (% modification) 10 μM 0.25 hr [1] [%] |
| --- | --- | --- | --- | --- | --- |
| C=CC(=O)N1CCN(c2ncnc3c(Oc4c(Cl)c(C)cc5[nH]ncc45)nccc23)C[C@@H]1C [Example 22A, 1-[(2S)-4-{8-[(5-chloro-6-methyl-1H-indazol-4-yl)oxy]pyrido[3,4-d]pyrimdin-4-yl}-2-methylpiperazin-1-yl]prop-2-en-1-one] | 10 | 15.6 |  |  |  |
| C=CC(=O)N1CCN(c2ncnc3c(Oc4c(C)ccc5[nH]ncc45)cccc23)CC1 [Example 01C, 1-(4-{8-[(5-methyl-1H-indazol-4-yl)oxy]quinazolin-4-yl}piperazin-1-yl)prop-2-en-1-one] | 18 | 5.92 |  |  |  |
| C=CC(=O)N1CCN(c2ncnc3c(Oc4c(C)ccc5[nH]ncc45)nc(C(F)(F)F)cc23)CC1 [Example 03A, 1-(4-{8-[(5-methyl-1H-indazol-4-yl)oxy]-6-(trifluoromethyl)pyrido[3,4-d]pyrimidin-4-yl}piperazin-1-yl)prop-2-en-1-one] | 28 | 2.74 |  |  |  |
| C=CC(=O)N1C[C@H](C)N(c2nc(N3CC(N(C)C)C3)nc3c(Oc4c(C)ccc5[nH]ncc45)nc(C)cc23)C[C@H]1C [Example 06B, 1-[(2R,5S)-4-{2-[3-(Dimethylamino)azetidin-1-yl]-6-methyl-8-[(5-methyl-1H-indazol-4-yl)oxy]pyrido[3,4-d]pyrimidin-4-yl}-2,5-dimethylpiperazin-1-yl]prop-2-en-1-one] | 9 | > 30 |  |  |  |
| C=CC(=O)N1CCN(c2nc(OC3CN(C)CC34CC4)nc3c(Oc4c(Cl)c(F)cc5[nH]ncc45)nc(Cl)cc23)CC1 (centres unmarked) [Example 36G, 1-(4-{6-chloro-8-[(5-chloro-6-fluoro-1H-indazol-4-yl)oxy]-2-[(5-methyl-5-azaspiro[2.4]heptan-7-yl)oxy]pyrido[3,4-d]pyrimidin-4-yl}piperazin-1-yl)prop-2-en-1-one] |  | 0.109 | 35 |  |  |
| C=CC(=O)N1CCN(c2nc(O[C@@H]3CN(C)C[C@H]3OCC)nc3c(Oc4c(Cl)c(F)cc5[nH]ncc45)nc(Cl)cc23)CC1 [Example 27G, 1-[4-(6-chloro-8-[(5-chloro-6-fluoro-1H-indazol-4-yl)oxy]-2-{[(3R,4R)-4-ethoxy-1-methylpyrrolidin-3-yl]oxy}pyrido[3,4-d]pyrimidin-4-yl)piperazin-1-yl]prop-2-en-1-one] |  | 0.029 | 67 |  |  |
| C=CC(=O)N1CCN(c2nc(O[C@@H]3CN(C)C[C@H]3OC)nc3c(Oc4c(Cl)c(F)cc5[nH]ncc45)nccc23)CC1 [Example 10I, 1-[4-(8-[(5-chloro-6-fluoro-1H-indazol-4-yl)oxy]-2-{[(3R,4R)-4-methoxy-1-methylpyrrolidin-3-yl]oxy}pyrido[3,4-d]pyrimidin-4-yl)piperazin-1-yl]prop-2-en-1-one] |  | 0.022 | 70 | 82 |  |
| C=CC(=O)N1CCN(c2ncnc3c(Oc4c(Cl)c(F)cc5[nH]ncc45)nc(Cl)cc23)[C@H](C)C1 [Example 40A, 1-[(3R)-4-{6-chloro-8-[(5-chloro-6-fluoro-1H-indazol-4-yl)oxy]pyrido[3,4-d]pyrimidin-4-yl}-3-methylpiperazin-1-yl]prop-2-en-1-one] |  | 20.9 |  |  | 6 |
| C=CC(=O)N1CCN(c2nc(OC[C@H]3CCCN3C)nc3c(Oc4c(C)ccc5[nH]ncc45)cccc23)CC1 [Example 06E, 1-[4-(8-[(5-methyl-1H-indazol-4-yl)oxy]-2-{[(2R)-1-methylpyrrolidin-2-yl]methoxy}quinazolin-4-yl)piperazin-1-yl]prop-2-en-1-one] | 75 | 0.585 |  | 35 | 70 |
| C=CC(=O)N1CCN(c2ncnc3c(Oc4c(C)cccc4Cl)nccc23)CC1 [Example 03, 1-{4-[8-(2-Chloro-6-methylphenoxy)pyrido[3,4-d]pyrimidin-4-yl]piperazin-1-yl}prop-2-en-1-one] | 15 | > 30 |  |  |  |
| C=CC(=O)N1CCN(c2ncnc3c(Oc4c(C)ccc5[nH]nc(C)c45)nccc23)CC1 [Example 17A, 1-(4-{8-[(3,5-dimethyl-1H-indazol-4-yl)oxy]pyrido[3,4-d]pyrimidin-4-yl}piperazin-1-yl)prop-2-en-1-one] | 9 | 24.1 |  |  |  |
| C=CC(=O)N1CCN(c2nc(O[C@@H]3CN(C)C[C@H]3OC)nc3c(Oc4c(C)ccc5[nH]ncc45)nccc23)CC1 [Example 28I] |  | 1 | 11 |  |  |
| C=CC(=O)N1CCN(c2nc(N(C)CCC(=O)NC)nc3c(Oc4c(C)ccc5[nH]ncc45)cccc23)CC1 [Example 14F, N^3-{4-(4-acryloylpiperazin-1-yl)-8-[(5-methyl-1H-indazol-4-yl)oxy]quinazolin-2-yl}-N,N^3-dimethyl-β-alaninamide] | 12 | 29 |  |  |  |
| C=CC(=O)N1CCN(c2nc(OC[C@]3(F)CCN(C)C3)nc3c(Oc4c(Cl)c(F)cc5[nH]ncc45)nccc23)CC1 [Example 14H, 1-[4-(8-[(5-chloro-6-fluoro-1H-indazol-4-yl)oxy]-2-{[(3S)-3-fluoro-1-methylpyrrolidin-3-yl]methoxy}pyrido[3,4-d]pyrimidin-4-yl)piperazin-1-yl]prop-2-en-1-one] |  | 0.082 |  | 52 | 81 |
| C=CC(=O)N1CCN(c2nc(N(C)CCC(=O)N(C)C)nc3c(Oc4c(C)ccc5[nH]ncc45)cccc23)CC1 [Example 05F, N^3-{4-(4-acryloylpiperazin-1-yl)-8-[(5-methyl-1H-indazol-4-yl)oxy]quinazolin-2-yl}-N,N,N^3-trimethyl-β-alaninamide] | 22 | 28.5 |  |  |  |
| C=CC(=O)N1CCN(c2nc(OC[C@@H]3C[C@H](OC)CN3C)nc3c(Oc4c(Cl)c(F)cc5[nH]ncc45)nccc23)CC1 [Example 12H, 1-[4-(8-[(5-chloro-6-fluoro-1H-indazol-4-yl)oxy]-2-{[(2S,4S)-4-methoxy-1-methylpyrrolidin-2-yl]methoxy}pyrido[3,4-d]pyrimidin-4-yl)piperazin-1-yl]prop-2-en-1-one] |  | 0.691 |  | 49 | 67 |
| C=CC(=O)N1CCN(c2ncnc3c(Oc4cc(O)cc5ccccc45)nccc23)CC1 [Example 06, 1-(4-{8-[(3-Hydroxynaphthalen-1-yl)oxy]pyrido[3,4-d]pyrimidin-4-yl}piperazin-1-yl)prop-2-en-1-one] | 20 | 29.7 |  |  |  |
| C=CC(=O)N1CCN(c2nc(Oc3cccc4c3CCN(C)C4)nc3c(Oc4c(Cl)ccc5[nH]ncc45)nccc23)CC1 [Example 48I, 1-(4-{8-[(5-chloro-1H-indazol-4-yl)oxy]-2-[(2-methyl-1,2,3,4-tetrahydro-isoquinolin-5-yl)oxy]pyrido [3,4-d]pyrimidin-4-yl}piperazin-1-yl)prop-2-en-1-one] |  | 0.006 | 67 |  |  |
